The results in this text go back to ChEMBL document CHEMBL4321837, “Discovery of Potent and Orally Effective Dual Janus Kinase 2/FLT3 Inhibitors for the Treatment of Acute Myelogenous Leukemia and Myeloproliferative Neoplasms” (J Med Chem, 2019).

Molecules are shown by their SMILES.

One assay concerns MV4-11. Briefly: Antiproliferative activity against FLT3-ITD-positive human MV4-11 cells assessed as reduction in cell growth after 72 hrs by MTT assay. To be noted: MV4-11, 72 h. In kind it is functional, cell-based.
The subject of a further assay is MOLM-13. Put plainly: Antiproliferative activity against FLT3-ITD-positive human MOLM13 cells assessed as reduction in cell growth after 72 hrs by MTT assay. In kind it is functional, cell-based. The following applies: MOLM-13, 72 h.
In assay [1] the target is Receptor-type tyrosine-protein kinase FLT3 (Homo sapiens) (UniProt P36888). Briefly: Inhibition of human FLT3 (564 to end residues) assessed as residual activity at 100 nM using EAIYAAPFAKKK as substrate after 40 mins in presence of [gamma33P]-ATP by scintillation counting based radiometric assay relative to control.
Assay [2] concerns the target Tyrosine-protein kinase JAK2 (Homo sapiens, UniProt O60674). Put plainly: Inhibition of human JAK2 (808 to end residues) assessed as residual activity at 100 nM using KTFCGTPEYLAP as substrate after 40 mins in presence of [gamma33P]-ATP by scintillation counting based radiometric assay relative to control.
For assay [3], the target named is T1, Tyrosine-protein kinase JAK3 (Homo sapiens) (UniProt P52333).
T1 sequence (whole entry): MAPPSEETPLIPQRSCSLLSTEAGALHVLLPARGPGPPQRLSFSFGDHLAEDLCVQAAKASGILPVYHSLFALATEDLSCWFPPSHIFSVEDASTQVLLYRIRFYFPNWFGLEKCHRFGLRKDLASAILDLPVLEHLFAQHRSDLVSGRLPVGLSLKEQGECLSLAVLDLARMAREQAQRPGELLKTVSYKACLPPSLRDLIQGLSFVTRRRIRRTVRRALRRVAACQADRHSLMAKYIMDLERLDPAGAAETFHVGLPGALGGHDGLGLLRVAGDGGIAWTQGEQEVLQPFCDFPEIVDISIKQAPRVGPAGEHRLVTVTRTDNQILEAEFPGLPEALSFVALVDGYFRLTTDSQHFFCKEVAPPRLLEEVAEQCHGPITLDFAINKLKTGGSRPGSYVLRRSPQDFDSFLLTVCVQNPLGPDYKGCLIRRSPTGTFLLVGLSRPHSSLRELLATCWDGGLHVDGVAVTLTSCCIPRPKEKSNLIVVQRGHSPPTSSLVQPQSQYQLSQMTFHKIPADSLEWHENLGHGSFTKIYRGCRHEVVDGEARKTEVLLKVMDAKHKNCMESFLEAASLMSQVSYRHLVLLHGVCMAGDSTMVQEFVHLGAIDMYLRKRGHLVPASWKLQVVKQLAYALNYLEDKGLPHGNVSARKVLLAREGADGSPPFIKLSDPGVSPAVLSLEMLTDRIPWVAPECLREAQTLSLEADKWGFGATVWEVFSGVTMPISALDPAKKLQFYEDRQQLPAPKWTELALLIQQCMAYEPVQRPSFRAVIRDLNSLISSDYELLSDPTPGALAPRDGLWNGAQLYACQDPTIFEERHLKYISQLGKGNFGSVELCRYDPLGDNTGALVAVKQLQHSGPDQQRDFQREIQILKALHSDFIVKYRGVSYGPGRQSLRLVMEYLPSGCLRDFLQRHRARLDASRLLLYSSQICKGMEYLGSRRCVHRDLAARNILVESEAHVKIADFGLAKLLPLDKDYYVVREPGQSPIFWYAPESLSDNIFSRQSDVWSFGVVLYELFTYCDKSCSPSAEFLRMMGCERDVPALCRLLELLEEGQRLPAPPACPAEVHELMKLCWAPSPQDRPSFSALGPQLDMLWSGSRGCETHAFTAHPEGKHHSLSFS
Briefly: Inhibition of human JAK3 (781 to end residues) assessed as residual activity at 100 nM using GGEEEEYFELVKK as substrate after 40 mins in presence of [gamma33P]-ATP by scintillation counting based radiometric assay relative to control.

In assay [4] the target is Tyrosine-protein kinase JAK1 (Homo sapiens, UniProt P23458). Put plainly: Inhibition of human JAK1 (866 to end residues) assessed as residual activity at 100 nM using GEEPLYWSFPAKK as substrate after 40 mins in presence of [gamma33P]-ATP by scintillation counting based radiometric assay relative to control.
Sequence of Tyrosine-protein kinase JAK1 (P23458 whole entry): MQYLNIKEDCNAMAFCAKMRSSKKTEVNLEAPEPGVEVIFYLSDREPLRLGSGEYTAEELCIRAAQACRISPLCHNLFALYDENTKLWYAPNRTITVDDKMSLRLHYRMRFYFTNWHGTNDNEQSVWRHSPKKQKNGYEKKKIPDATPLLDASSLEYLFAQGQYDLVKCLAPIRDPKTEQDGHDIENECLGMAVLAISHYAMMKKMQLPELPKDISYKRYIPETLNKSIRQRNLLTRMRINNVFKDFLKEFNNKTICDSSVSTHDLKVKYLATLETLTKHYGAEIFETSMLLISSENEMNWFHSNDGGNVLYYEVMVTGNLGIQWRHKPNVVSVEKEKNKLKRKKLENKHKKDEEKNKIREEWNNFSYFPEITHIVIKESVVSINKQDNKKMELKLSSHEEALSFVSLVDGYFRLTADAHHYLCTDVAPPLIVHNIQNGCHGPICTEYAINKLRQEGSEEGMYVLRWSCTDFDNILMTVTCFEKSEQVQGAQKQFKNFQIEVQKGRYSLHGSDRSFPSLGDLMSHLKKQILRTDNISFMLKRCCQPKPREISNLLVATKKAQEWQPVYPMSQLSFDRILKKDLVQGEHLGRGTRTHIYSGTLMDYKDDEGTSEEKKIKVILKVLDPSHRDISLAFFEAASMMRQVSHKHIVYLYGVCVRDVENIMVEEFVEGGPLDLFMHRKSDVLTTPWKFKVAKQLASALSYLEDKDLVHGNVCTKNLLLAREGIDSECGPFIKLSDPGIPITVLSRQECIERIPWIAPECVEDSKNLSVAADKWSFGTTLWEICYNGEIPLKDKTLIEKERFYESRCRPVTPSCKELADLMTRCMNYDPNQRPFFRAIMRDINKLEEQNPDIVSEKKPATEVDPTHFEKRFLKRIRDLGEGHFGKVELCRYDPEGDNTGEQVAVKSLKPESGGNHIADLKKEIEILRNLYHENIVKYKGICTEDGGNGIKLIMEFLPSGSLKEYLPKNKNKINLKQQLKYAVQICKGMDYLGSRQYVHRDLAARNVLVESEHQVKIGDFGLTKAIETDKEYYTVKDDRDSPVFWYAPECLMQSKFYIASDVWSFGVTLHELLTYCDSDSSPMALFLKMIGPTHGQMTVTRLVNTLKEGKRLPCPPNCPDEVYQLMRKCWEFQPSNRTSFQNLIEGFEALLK

Sequence of Tyrosine-protein kinase JAK2 (O60674 whole entry): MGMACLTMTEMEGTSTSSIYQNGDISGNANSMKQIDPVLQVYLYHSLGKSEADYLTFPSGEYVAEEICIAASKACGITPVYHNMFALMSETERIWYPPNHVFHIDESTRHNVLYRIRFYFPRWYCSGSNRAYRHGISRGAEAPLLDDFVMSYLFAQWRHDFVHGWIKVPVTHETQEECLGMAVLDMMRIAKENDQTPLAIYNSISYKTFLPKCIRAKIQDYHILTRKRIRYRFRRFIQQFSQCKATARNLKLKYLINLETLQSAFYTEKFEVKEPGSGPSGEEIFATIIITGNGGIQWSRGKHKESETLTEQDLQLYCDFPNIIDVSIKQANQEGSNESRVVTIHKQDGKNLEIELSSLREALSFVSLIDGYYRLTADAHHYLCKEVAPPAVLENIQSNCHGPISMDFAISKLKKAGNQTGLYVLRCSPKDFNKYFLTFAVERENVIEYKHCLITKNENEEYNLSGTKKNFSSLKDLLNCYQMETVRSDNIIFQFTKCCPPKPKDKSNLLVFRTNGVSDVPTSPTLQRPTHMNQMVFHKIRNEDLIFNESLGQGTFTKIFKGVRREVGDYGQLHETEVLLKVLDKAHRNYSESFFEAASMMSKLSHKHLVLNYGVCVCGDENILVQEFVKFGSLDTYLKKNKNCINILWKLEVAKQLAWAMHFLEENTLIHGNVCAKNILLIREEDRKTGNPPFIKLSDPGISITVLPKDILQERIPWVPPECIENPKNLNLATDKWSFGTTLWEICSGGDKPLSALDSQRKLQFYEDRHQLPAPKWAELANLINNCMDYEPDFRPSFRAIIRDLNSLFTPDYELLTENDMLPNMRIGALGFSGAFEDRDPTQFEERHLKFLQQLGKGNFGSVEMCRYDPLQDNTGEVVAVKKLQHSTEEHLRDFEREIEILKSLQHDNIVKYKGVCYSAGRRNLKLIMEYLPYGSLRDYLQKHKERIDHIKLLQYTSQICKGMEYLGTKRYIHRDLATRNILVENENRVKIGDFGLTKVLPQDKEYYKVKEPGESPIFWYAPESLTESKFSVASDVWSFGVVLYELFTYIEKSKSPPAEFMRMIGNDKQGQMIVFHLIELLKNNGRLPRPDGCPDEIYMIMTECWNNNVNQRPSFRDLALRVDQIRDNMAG
Sequence of Receptor-type tyrosine-protein kinase FLT3 (Homo sapiens) (P36888 whole entry): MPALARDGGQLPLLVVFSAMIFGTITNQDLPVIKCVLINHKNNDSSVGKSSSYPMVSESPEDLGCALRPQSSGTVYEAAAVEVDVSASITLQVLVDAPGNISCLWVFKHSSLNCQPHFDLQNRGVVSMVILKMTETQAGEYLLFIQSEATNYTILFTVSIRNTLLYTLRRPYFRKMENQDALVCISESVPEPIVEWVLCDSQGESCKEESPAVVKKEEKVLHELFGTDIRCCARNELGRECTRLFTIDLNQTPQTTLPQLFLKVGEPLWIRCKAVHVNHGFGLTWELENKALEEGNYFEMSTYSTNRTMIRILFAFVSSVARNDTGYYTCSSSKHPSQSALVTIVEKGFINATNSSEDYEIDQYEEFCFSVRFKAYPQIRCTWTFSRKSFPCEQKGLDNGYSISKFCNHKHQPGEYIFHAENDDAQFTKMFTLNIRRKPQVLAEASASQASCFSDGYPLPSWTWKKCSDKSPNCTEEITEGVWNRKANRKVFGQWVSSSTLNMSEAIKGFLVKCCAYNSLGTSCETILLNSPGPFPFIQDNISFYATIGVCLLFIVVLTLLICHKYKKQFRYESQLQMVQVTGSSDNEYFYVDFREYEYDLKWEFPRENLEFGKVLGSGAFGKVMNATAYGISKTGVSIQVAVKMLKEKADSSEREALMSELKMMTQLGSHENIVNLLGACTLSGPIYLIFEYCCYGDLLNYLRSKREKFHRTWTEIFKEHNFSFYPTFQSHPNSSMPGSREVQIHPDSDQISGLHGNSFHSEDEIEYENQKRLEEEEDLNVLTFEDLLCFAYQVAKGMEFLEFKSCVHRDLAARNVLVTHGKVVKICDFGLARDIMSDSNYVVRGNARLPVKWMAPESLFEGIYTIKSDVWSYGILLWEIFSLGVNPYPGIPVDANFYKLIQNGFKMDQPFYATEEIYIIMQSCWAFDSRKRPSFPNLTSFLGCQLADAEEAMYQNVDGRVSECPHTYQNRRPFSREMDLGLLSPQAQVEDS

`CC(C)n1cc(-c2nc(Nc3ccc(N4CCN(C)CC4)cc3F)ncc2F)cn1`: the half-maximal inhibitory concentration (IC50) with MV4-11 was 7.8 µM.
As for `CCCn1cc(-c2nc(Nc3ccc(N4CCN(CC)CC4)c(F)c3)ncc2F)cn1`, the IC50 in the assay with MOLM-13 was determined as 0.41 µM; in the assay on MV4-11, 0.061 µM. Further, the Activity in assay [1] was determined as 15%; in assay [2] it was 27%; in assay [3] it was 52%; in assay [4], 59%.
For the compound `CCN1CCN(c2ccc(Nc3ncc(F)c(-c4cnn(C(C)C)c4)n3)c(F)c2)CC1`, the results for the concentration for half-maximal inhibition (IC50) in the assay on MOLM-13 and in the assay with MV4-11 were 0.85 µM and 0.057 µM, respectively. The Activity in assay [1] was determined as 16%; in assay [2] it was 39%; in assay [3] it was 77%; in assay [4] it was 113%.
For the compound `CC(C)n1cc(-c2nc(Nc3ccc(N4CCN(C)CC4)c(F)c3)ncc2F)cn1`, the figures for the IC50 with MOLM-13 and in the assay with MV4-11 were 0.94 µM and 0.026 µM, respectively.
Consider `Cc1cnc(Nc2ccc(N3CCN(C)CC3)c(F)c2)nc1-c1cnn(C(C)C)c1`, for which the 50% inhibitory concentration (IC50) with MOLM-13 is 0.12 µM; in the assay with MV4-11 it was 0.042 µM. The Activity in assay [1] is 6%; in assay [2], 3%; in assay [3], 40%; in assay [4], 35%.
As for `Cc1cnc(Nc2ccc(N3CCC(N(C)CC4CC4)CC3)c(F)c2)nc1-c1cnn(C(C)C)c1`, the concentration for half-maximal inhibition (IC50) with MOLM-13 was 0.031 µM; in the assay on MV4-11, 0.0081 µM. In addition, the Activity in assay [1] came to 4%; in assay [2], 15%; in assay [3], 31%; in assay [4] it was 20%.
Regarding `CCN1CCN(c2ccc(Nc3ncc(F)c(-c4cnn(C5CCCC5)c4)n3)cc2F)CC1`, the IC50 was 0.41 µM with MOLM-13 and 0.027 µM in the assay with MV4-11. Further, the Activity in assay [1] worked out at 12%; in assay [2], 27%; in assay [3] it was 68%; in assay [4], 57%.
With `Cc1cnc(Nc2ccc(N3CCC(N(C)CCCCCO)CC3)c(F)c2)nc1-c1cnn(C(C)C)c1`, the concentration for half-maximal inhibition (IC50) with MOLM-13 was > 10 µM; in the assay with MV4-11 it was > 1 µM.
For the compound `CCCCN1CCC(n2cc(-c3nc(Nc4ccc(N5CCN(C)CC5)c(F)c4)ncc3F)cn2)CC1`, the IC50 worked out at 0.18 µM in the assay on MOLM-13 and 0.24 µM in the assay with MV4-11. Also, the Activity in assay [1] is 13%; in assay [2] it was 19%; in assay [3], 32%; in assay [4], 68%.
On to `Cc1cnc(Nc2ccc(N3CCC(N(C)C)CC3)c(F)c2)nc1-c1cnn(C(C)C)c1`, for which the IC50 in the assay on MOLM-13 turned out to be 0.1 µM; in the assay with MV4-11, 0.0054 µM. Further, the Activity in assay [1] worked out at 8%; in assay [2], 5%; in assay [3] it was 23%; in assay [4], 17%.
Consider `CCN1CCN(c2ccc(Nc3ncc(F)c(-c4cnn(C(C)C)c4)n3)cc2F)CC1`, for which the values for the IC50 with MOLM-13 and in the assay with MV4-11 were 0.25 µM and 0.031 µM, respectively. The Activity amounted to 17% in assay [1], 17% in assay [2], 66% in assay [3] and 62% in assay [4].
Turning to `Cc1cnc(Nc2ccc(N3CCC(N(C)CCN4CCCCC4)CC3)c(F)c2)nc1-c1cnn(C(C)C)c1`, the IC50 came to 0.17 µM in the assay with MOLM-13 and 0.012 µM with MV4-11. The Activity in assay [1] came to 6%; in assay [2], 4%; in assay [3], 38%; in assay [4] it was 21%.
On to `CCOCCN(C)C1CCN(c2ccc(Nc3ncc(C)c(-c4cnn(C(C)C)c4)n3)cc2F)CC1`, for which the 50% inhibitory concentration (IC50) stood at 0.028 µM with MOLM-13 and 0.0073 µM with MV4-11. The Activity in assay [1] was 5%; in assay [2], 9%; in assay [3] it was 28%; in assay [4], 19%.
For the compound `CCCN(CCN1CCOCC1)C1CCN(c2ccc(Nc3ncc(C)c(-c4cnn(C(C)C)c4)n3)cc2F)CC1`, the concentration for half-maximal inhibition (IC50) in the assay with MOLM-13 and with MV4-11 was 0.21 µM in each case. Also, the Activity in assay [1] worked out at 8%; in assay [2], 8%; in assay [3], 9%; in assay [4], 20%.
In the case of `CCCn1cc(-c2nc(Nc3ccc(N4CCN(CC)CC4)cc3F)ncc2F)cn1`, the IC50 in the assay with MOLM-13 was > 10 µM; with MV4-11, 4.2 µM.
For the compound `Cc1cnc(Nc2ccc(N3CCC(N(C)CCN4CCOCC4)CC3)c(F)c2)nc1-c1cnn(C(C)C)c1`, the values for the IC50 with MOLM-13 and with MV4-11 were 0.089 µM and 0.018 µM, respectively. The Activity in assay [1] came to 5%; in assay [2], 23%; in assay [3], 37%; in assay [4], 20%.
For `Cc1cnc(Nc2ccc(N3CCC(N(C)CC4CCCO4)CC3)c(F)c2)nc1-c1cnn(C(C)C)c1` (configuration not stated), the IC50 turned out to be 0.07 µM in the assay on MOLM-13 and 0.03 µM in the assay with MV4-11. Moreover, the Activity was 6% in assay [1], 10% in assay [2], 36% in assay [3] and 23% in assay [4].
For the compound `CCCN1CCC(n2cc(-c3nc(Nc4ccc(N5CCN(C)CC5)c(F)c4)ncc3F)cn2)CC1`, the figures for the IC50 with MOLM-13 and with MV4-11 were 0.19 µM and 0.11 µM, respectively.
Regarding `CCCCn1cc(-c2nc(Nc3ccc(N4CCN(C)CC4)c(F)c3)ncc2F)cn1`, the IC50 in the assay on MOLM-13 was found to be 0.54 µM; in the assay with MV4-11 it was 0.027 µM. Also, the Activity is 11% in assay [1], 15% in assay [2], 41% in assay [3] and 49% in assay [4].
Turning to `CCN1CCN(c2ccc(Nc3ncc(C)c(-c4cnn(C(C)C)c4)n3)cc2F)CC1`, the values for the half-inhibitory concentration (IC50) in the assay with MOLM-13 and in the assay with MV4-11 were 4 µM and 1.1 µM, respectively.
As for `CC(C)n1cc(-c2nc(Nc3ccc(N4CCN(C5CCN(C)CC5)CC4)c(F)c3)ncc2F)cn1`, the IC50 with MOLM-13 came to 0.59 µM; in the assay on MV4-11, 0.036 µM. In addition, the Activity in assay [1] turned out to be 10%; in assay [2], 10%; in assay [3], 44%; in assay [4], 54%.
For the compound `CCCn1cc(-c2nc(Nc3ccc(N4CCN(C)CC4)cc3F)ncc2F)cn1`, the concentration for half-maximal inhibition (IC50) came to 9.7 µM in the assay with MOLM-13 and 8.1 µM with MV4-11.
As for `CN1CCN(c2ccc(Nc3ncc(F)c(-c4cnn(C5CCCC5)c4)n3)cc2F)CC1`, in the assay on MV4-11, the half-inhibitory concentration (IC50) stood at 8.3 µM.
As to `CCCCCCN(C)C1CCN(c2ccc(Nc3ncc(C)c(-c4cnn(C(C)C)c4)n3)cc2F)CC1`, the IC50 in the assay with MOLM-13 turned out to be 0.21 µM; in the assay on MV4-11, 0.07 µM. Further, the Activity in assay [1] was 6%; in assay [2] it was 18%; in assay [3], 44%; in assay [4], 26%.
As to `Cc1cnc(Nc2ccc(N3CCC(CO)CC3)c(F)c2)nc1-c1cnn(C(C)C)c1`, the 50% inhibitory concentration (IC50) in the assay with MOLM-13 is 0.84 µM; with MV4-11, 0.16 µM.
Consider `CN(C)C1CCN(c2ccc(Nc3ncc(F)c(-c4cnn(C5CCCC5)c4)n3)cc2F)CC1`, for which the IC50 in the assay with MV4-11 came out at 4.5 µM.
As to `CC(C)n1cc(-c2nc(Nc3ccc(N4CCC(N5CCCCC5)CC4)c(F)c3)ncc2F)cn1`, the half-inhibitory concentration (IC50) was determined as 0.1 µM in the assay with MOLM-13 and 0.026 µM in the assay on MV4-11. In addition, the Activity in assay [1] amounted to 10%; in assay [2], 8%; in assay [3], 47%; in assay [4] it was 36%.
As for `CC(C)n1cc(-c2nc(Nc3ccc(N4CCC(N(C)C)CC4)c(F)c3)ncc2F)cn1`, the 50% inhibitory concentration (IC50) is 0.54 µM in the assay on MOLM-13 and 0.032 µM in the assay on MV4-11. Besides, the Activity in assay [1] turned out to be 9%; in assay [2], 6%; in assay [3] it was 48%; in assay [4], 57%.
Regarding `Cc1cnc(Nc2ccc(N3CCC(NCCO)CC3)c(F)c2)nc1-c1cnn(C(C)C)c1`, the values for the concentration for half-maximal inhibition (IC50) with MOLM-13 and in the assay on MV4-11 were 0.55 µM and 0.2 µM, respectively.
